Molecules are shown by their SMILES.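 Exposure lasted 48 hours, with cells grown in 96-well plates and compounds tested at five concentrations. Abbreviation: GI50, concentration required for 50% inhibition of growth. TGI denotes the concentration required for complete inhibition of growth.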 Bounds are passed on as bounds.

What all share (test): growth of human tumour cells (NCI), 48 h
Assay [1] relates to BT-549 breast.
Assay [2] has as its system HL-60(TB) leukemia.
Assay [3] has as its system SK-OV-3 ovarian.
Assay [4] deals with HS 578T breast.
In assay [5] the test system is A549 NSCLC.
In assay [6] the test system is M14 melanoma.
For assay [7], the system named is ACHN renal.
The subject of assay [8] is OVCAR-3 ovarian.
For assay [9], the system named is DU-145 prostate.
The subject of assay [10] is UACC-62 melanoma.

Consider `CC(C)C[C@H](NC(=O)CCn1ccc2ncccc2c1=O)B(O)O`, for which the GI50 in assay [1] was 4.86 µM; in assay [2], 6.88 µM; in assay [3], above 66 µM; in assay [4], 13.2 µM; in [5], 36.1 µM; in assay [6] it was 5.45 µM. The GI50 was 9.45 µM in [7], 4.1 µM in assay [8], 19.6 µM in assay [9] and 5.93 µM in assay [10]. Moreover, the TGI in assay [1] was 23.1 µM; in [2], above 100 µM; in [3] it was above 100 µM; in assay [4], above 71.7 µM; in assay [5], above 100 µM; in assay [6] it was above 47.3 µM. Also, the TGI in [7] was above 100 µM; in assay [8], 20.6 µM; in [9], above 100 µM; in [10], 61.7 µM.
Consider `COc1cc(F)c(/C=C/c2cc(/C=C/c3cc(OC)c(OC)cc3F)n(-c3cc(F)cc(F)c3)n2)cc1OC`, for which the GI50 in assay [1] is 2.35 µM; in [2], above 100 µM; in assay [3], 19.6 µM; in assay [4], 4.04 µM; in [5], 3.29 µM; in assay [6], 1.74 µM. Further, the GI50 in assay [7] was 18.1 µM; in assay [8] it was 2.47 µM; in [9], 3.68 µM; in [10], 1.65 µM. The TGI is 7.51 µM in assay [1]; above 100 µM in assay [2]; 41.9 µM in assay [3]; 18.9 µM in assay [4]; 11.4 µM in assay [5]; 3.53 µM in [6]. Also, the TGI amounted to 46.2 µM in assay [7], 6.37 µM in assay [8], 18.1 µM in assay [9] and 3.32 µM in assay [10].
As to `OCC(CCc1c[nH]c2ccccc12)c1c[nH]c2ccccc12` (stereo not drawn), the TGI in assay [1] worked out at 30.5 µM; in assay [2], 26.6 µM; in assay [3], 98.5 µM; in [4], 48.6 µM; in assay [5] it was 47.2 µM; in assay [6] it was 28.6 µM. For the same molecule, the TGI in assay [7] is 45.1 µM; in assay [8], above 100 µM; in assay [9], 32.7 µM; in [10], 27 µM.
For the molecule `C=C1C(OC/C=C/COC2O[C@@H]3O[C@@]4(C)CC[C@H]5[C@H](C)CC[C@@H](C2=C)[C@@]35OO4)O[C@@H]2O[C@@]3(C)CC[C@H]4[C@H](C)CC[C@@H]1[C@@]24OO3` (stereo partly drawn), the GI50 was 3.07 µM in assay [1]; 51.3 µM in assay [3]; 12.6 µM in assay [4]; 7.48 µM in assay [5]; 10.7 µM in assay [6]; 1.72 µM in assay [7]. For the same molecule, the GI50 in [9] was 15.5 µM; in assay [10] it was 2.01 µM. Also, the TGI in assay [1] was 41.1 µM; in assay [2], 47.1 µM; in assay [3], above 100 µM; in assay [4] it was 59.6 µM; in assay [5] it was above 60.5 µM; in [6] it was 27.5 µM. Moreover, the TGI in assay [7] is 17.3 µM; in [8], 11.4 µM; in [9], 37.6 µM; in [10], 69.1 µM.
Regarding `Cc1cnccc1N=Nc1ccc(N(C)C)cc1`, the TGI was 49.3 µM in [1]; above 100 µM in assay [2]; 48.2 µM in assay [3]; above 100 µM in assay [4]; above 100 µM in [5]; above 100 µM in assay [6]. The TGI in assay [7] is above 100 µM; in assay [8], 72.1 µM; in assay [9], above 100 µM; in [10], 40.7 µM.
Regarding `CCN(CC)CCn1c2ccc(OC)cc2c2sc3cc(OC)ccc3c(=O)c21`, the GI50 in assay [1] is 2.24 µM; in assay [2] it was 1.77 µM; in assay [3], 3.07 µM; in [4] it was 1.96 µM; in assay [5], 1.59 µM; in assay [6], 1.64 µM. Further, the GI50 in [7] was 1 µM; in assay [8], 2.12 µM; in [9] it was 1.67 µM; in [10], 1.8 µM. For the same molecule, the TGI in assay [1] was 5.95 µM; in assay [2], 4.22 µM; in assay [3], 10.3 µM; in assay [4], 4.98 µM; in assay [5], 5.71 µM; in assay [6], 3.08 µM. Also, the TGI in assay [7] was determined as 2.77 µM; in assay [8], 4.54 µM; in [9], 3.7 µM; in assay [10], 3.47 µM.
In the case of `Nc1nccc2c1ncn2C1OC(CO)C(O)C1O` (stereo not drawn), the GI50 in [1] is 88.8 µM; in [2], above 100 µM; in assay [3], above 100 µM; in assay [4], above 100 µM; in [5] it was above 100 µM; in assay [6], above 100 µM. Further, the GI50 in assay [7], in [8], in assay [9] and in assay [10] was above 100 µM in each case. The TGI in assay [1], in assay [2], in assay [3], in assay [4], in assay [5] and in assay [6] was above 100 µM each time. For the same molecule, the TGI in assay [7], in assay [8], in assay [9] and in assay [10] was above 100 µM each time.
With `O=c1oc2c3ccc4cnccc4c3[nH]c2c2ccccc12`, the GI50 was 14.2 µM in assay [1]; 17.3 µM in [2]; above 100 µM in [3]; 21.3 µM in assay [4]; 3.96 µM in [5]; 13.4 µM in [6]. Besides, the GI50 is 31.5 µM in [7], 18.3 µM in assay [8], 12.3 µM in [9] and 17.6 µM in assay [10]. Also, the TGI was 29.2 µM in assay [1]; above 100 µM in [2]; above 100 µM in [3]; above 100 µM in assay [4]; above 100 µM in [5]; 26.6 µM in [6]. Besides, the TGI in [7] is above 100 µM; in [8] it was 32.4 µM; in assay [9] it was 32.9 µM; in assay [10], 42.1 µM.
For `Clc1cc(-c2ccccc2)nc2ccccc12`, the TGI in [1] was 80.4 µM; in [2] it was 53.3 µM; in assay [3], above 100 µM; in assay [4], above 100 µM; in [5], above 100 µM; in [6] it was above 100 µM. In addition, the TGI in assay [7], in assay [8], in assay [9] and in [10] was above 100 µM each time.

(Values after PubChem BioAssay (NCI).)
